Data published in EP4678638A1, “NEW E3 UBIQUITIN LIGASE LIGAND, PROTEIN DEGRADATION AGENT AND USE THEREOF” (priority 2023, dated 2024).

Assays:
[1] = test system: MDA-MB-231; assay: CCK-8 proliferation, MDA-MB-231; assay type: cell-based; conditions: Homo sapiens; Table B6, compounds designed based on the ALK inhibitors; MDA-MB-231 cells; read-out: Inhibitory activity (IC50, nM) on tumor cell proliferation, MDA-MB-231
Method: The tumor cells used herein were cultured in a cell culture medium listed in table A1 at 37°C in an incubator with 5% CO2. Prior to experimentation, all cell lines used were correctly identified by STR profiling, and tested negative for mycoplasma contamination using a mycoplasma detection kit through routine screenings. Table A1. Tumor cells and cell culture medium used in the present disclosure
IC50 values of the compounds of the present disclosure (including the compounds in Table 1, and compounds of examples) were measured using the Meilun Cell Counting Kit-8 kit from Dalian Meilun Biotech Co., Ltd. Assay details are as follows: tumor cells were seeded in a 96-well plate at a density listed in Table A2. After 24h, 100 µL of the inoculated cells were treated with 0.5µL of the compounds of the present disclosure (including the compounds in Tables 1 and 2, and compounds of examples) at 10 different successively decreasing concentrations (starting at the highest concentration of 10µM; 5-fold serial dilutions). After the cells were treated with the compounds of the present disclosure for a period of time, the cell viability detection reagent was added to the culture medium for cell viability assessment according to the instructions provided with the CCK-8 kit. […] The growth inhibition of the compounds of the present disclosure on cells was plotted by Prism Graphpad software, and the IC50 values of the compounds of the present disclosure were calculated therefrom. […] Seeding protocol and treatment time for tumor cells

[2] = test system: H1975; assay: CCK-8 proliferation, NCI-H1975 (H1975); assay type: cell-based, Human; conditions: Homo sapiens, NCI-H1975; Table B6, compounds designed based on the ALK inhibitors; H1975 cells; read-out: Inhibitory activity (IC50, nM) on tumor cell proliferation, H1975
How it was run: (§1)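 CCK-8 viability readout; IC50 from growth-inhibition curve fitting. Cells plated, dosed 24h later with a 10-point series, top 10µM, 5-fold steps. Culture at 37°C, 5% CO2.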

[3] = test system: H2228; assay: CCK-8 proliferation, NCI-H2228 (H2228); assay type: cell-based; conditions: Homo sapiens, NCI-H2228; Table B6, compounds designed based on the ALK inhibitors; H2228 cells; read-out: Inhibitory activity (IC50, nM) on tumor cell proliferation, H2228
How it was run: as §1

[4] = molecular target: T1, ALK (Homo sapiens, UniProt Q96SW2+Q9HC35+Q9UM73); assay: Western blot degradation of ALK (H2228 Cell); assay type: cell-based; conditions: Table D5
T1 construct: evaluate the effects of the compounds of the present disclosure on the expression of target proteins in cells; endogenous in cells; host or cells: H2228
How it was run: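 Degradation is assessed by immunoblotting lysates of treated cells. Target bands are quantified by grayscale and normalised to an internal control, so degradation rate equals 100% minus % remaining.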

[5] = test system: SR; assay: CCK-8 proliferation, SR; assay type: cell-based, Human; conditions: Homo sapiens; Table B6, compounds designed based on the ALK inhibitors; SR cells; read-out: Inhibitory activity (IC50, nM) on tumor cell proliferation, SR
How it was run: as §1

[6] = test system: MM.1S; assay: CCK-8 proliferation, MM.1S; assay type: cell-based; conditions: Homo sapiens, MM1.S; Table B6, compounds designed based on the ALK inhibitors; MM.1S cells; read-out: Inhibitory activity (IC50, nM) on tumor cell proliferation, MM.1S
How it was run: as §1

[7] = molecular target: T2, human Cereblon WT GST-tagged protein (Homo sapiens, UniProt Q96SW2); assay: CRBN binding, HTRF (CEREBLON BINDING kit); conditions: Table II-2, CRBN binding screening, HTRF; for inhibition at 0.5 µM: read-out: Inhibition rate (%) at 0.5µM; for inhibition at 2 µM: read-out: Inhibition rate (%) at 2 µM
T2 construct: purchased CISBIO 64BDCRBNPEH
How it was run: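 After 3 h at room temperature, emission at 665 and 620 nm was measured in a homogeneous time-resolved fluorescence format. Compounds competed with a Thalidomide-Re probe for GST-tagged wild-type human CRBN, which was labelled with a Eu anti-GST antibody.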

[8] = test system: MCF7; assay: CCK-8 proliferation, MCF7 (MCF-7); assay type: cell-based; conditions: Homo sapiens, MCF7; Table B6, compounds designed based on the ALK inhibitors; MCF-7 cells; read-out: Inhibitory activity (IC50, nM) on tumor cell proliferation, MCF-7
How it was run: as §1

T1 sequence (Q9HC35+Q9UM73 fused): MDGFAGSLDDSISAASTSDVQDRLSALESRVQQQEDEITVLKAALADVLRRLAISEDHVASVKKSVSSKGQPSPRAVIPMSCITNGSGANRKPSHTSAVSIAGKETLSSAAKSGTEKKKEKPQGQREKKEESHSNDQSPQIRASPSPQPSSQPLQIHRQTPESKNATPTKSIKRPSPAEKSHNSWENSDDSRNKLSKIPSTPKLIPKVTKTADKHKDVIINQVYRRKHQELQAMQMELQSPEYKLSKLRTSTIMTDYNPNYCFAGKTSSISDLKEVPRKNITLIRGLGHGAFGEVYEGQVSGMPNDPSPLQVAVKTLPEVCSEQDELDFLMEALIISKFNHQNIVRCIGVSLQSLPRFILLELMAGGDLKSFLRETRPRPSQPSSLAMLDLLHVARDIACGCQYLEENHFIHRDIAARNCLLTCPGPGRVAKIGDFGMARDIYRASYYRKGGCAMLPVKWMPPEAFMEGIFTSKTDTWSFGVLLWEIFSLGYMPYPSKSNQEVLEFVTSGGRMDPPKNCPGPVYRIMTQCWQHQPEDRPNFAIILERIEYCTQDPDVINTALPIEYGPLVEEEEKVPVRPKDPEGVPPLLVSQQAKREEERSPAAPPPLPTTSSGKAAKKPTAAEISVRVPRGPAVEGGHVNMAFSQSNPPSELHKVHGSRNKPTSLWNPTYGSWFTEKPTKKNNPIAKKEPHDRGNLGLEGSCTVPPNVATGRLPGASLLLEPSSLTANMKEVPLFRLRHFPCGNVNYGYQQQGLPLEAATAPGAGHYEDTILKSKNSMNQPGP
T1 sequence (Q96SW2 whole entry): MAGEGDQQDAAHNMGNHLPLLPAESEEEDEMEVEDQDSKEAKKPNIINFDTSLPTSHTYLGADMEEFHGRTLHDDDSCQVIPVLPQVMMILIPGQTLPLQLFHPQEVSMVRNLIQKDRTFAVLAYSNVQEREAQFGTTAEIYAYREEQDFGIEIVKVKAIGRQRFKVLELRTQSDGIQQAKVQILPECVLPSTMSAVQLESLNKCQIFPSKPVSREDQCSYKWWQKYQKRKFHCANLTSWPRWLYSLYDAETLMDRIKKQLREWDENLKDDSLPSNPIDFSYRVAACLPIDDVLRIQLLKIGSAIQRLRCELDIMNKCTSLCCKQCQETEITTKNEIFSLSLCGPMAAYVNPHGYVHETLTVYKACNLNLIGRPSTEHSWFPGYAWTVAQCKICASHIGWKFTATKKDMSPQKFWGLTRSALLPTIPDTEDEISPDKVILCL
T1 sequence (Q16531 whole entry partner): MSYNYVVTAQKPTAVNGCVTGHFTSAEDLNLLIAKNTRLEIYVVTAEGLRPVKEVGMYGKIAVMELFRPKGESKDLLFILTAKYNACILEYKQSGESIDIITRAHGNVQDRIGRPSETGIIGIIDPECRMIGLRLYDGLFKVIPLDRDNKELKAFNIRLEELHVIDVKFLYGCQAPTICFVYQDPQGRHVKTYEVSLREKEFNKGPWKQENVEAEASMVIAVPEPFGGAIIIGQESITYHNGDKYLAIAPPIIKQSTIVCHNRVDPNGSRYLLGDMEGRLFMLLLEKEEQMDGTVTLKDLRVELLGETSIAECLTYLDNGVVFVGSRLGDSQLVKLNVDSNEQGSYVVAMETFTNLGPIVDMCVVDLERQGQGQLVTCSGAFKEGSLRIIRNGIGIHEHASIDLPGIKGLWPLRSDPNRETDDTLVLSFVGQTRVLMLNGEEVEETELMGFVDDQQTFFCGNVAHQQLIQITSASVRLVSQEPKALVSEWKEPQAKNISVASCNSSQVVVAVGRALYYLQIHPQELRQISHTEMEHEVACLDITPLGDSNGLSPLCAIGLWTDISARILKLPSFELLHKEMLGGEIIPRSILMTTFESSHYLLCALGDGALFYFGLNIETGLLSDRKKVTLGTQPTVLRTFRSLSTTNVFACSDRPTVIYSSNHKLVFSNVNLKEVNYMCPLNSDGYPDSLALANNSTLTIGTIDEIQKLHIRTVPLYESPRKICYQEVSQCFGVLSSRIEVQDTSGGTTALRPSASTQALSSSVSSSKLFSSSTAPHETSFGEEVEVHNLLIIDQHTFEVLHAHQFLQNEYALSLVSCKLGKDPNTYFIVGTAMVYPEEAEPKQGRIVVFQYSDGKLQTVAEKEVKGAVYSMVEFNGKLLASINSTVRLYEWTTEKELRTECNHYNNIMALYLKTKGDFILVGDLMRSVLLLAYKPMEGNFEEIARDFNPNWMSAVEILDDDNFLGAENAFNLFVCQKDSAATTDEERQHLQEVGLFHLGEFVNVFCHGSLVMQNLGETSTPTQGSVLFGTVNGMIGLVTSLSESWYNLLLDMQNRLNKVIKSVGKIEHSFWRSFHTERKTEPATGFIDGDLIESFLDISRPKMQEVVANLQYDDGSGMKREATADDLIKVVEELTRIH
T2 sequence (Q96SW2 whole entry): as the sequence (Q96SW2 whole entry) above

| Structure (SMILES) | IC50 [1] | IC50 [2] | IC50 [3] | Degradation of substrate protein ALK (substrate protein remaining %) [4] | IC50 [5] | IC50 [6] | inhibition at 0.5 µM [7] | inhibition at 2 µM [7] | IC50 [8] |
| --- | --- | --- | --- | --- | --- | --- | --- | --- | --- |
| COc1cc(N2CCC(N(C)Cc3ccc(C4CCC(=O)NC4=O)cc3)CC2)ccc1Nc1ncc(Cl)c(Nc2ccccc2P(C)(C)=O)n1 (stereo not drawn) [GT-03603, 3-(4-(((1-(4-((5-chloro-4-((2-(dimethylphosphoryl)phenyl)amino)pyrimidin-2-yl)amino)-3-methoxyphenyl)piperidin-4-yl)(methyl)amino)methyl)phenyl)piperidine-2,6-dione] | 500 to 1000 nM | 500 to 1000 nM | 50 to 100 nM | A (A is defined as 0% ≤ substrate protein remaining % ≤ 80%) | 1 to 10 nM | 500 to 1000 nM | 30 to 40% | 53 to 60% |  |
| COc1cc(N2CCC(N(C)Cc3ccc(C4CCC(=O)NC4=O)c(F)c3)CC2)ccc1Nc1ncc(Cl)c(Nc2ccccc2P(C)(C)=O)n1 (stereo not drawn) [GT-03604, 3-(4-(((1-(4-((5-chloro-4-((2-(dimethylphosphoryl)phenyl)amino)pyrimidin-2-yl)amino)-3-methoxyphenyl)piperidin-4-yl)(methyl)amino)methyl)-2-fluorophenyl)piperidine-2,6-dione] | 100 to 500 nM | 100 to 500 nM | 10 to 50 nM | A (A is defined as 0% ≤ substrate protein remaining % ≤ 80%) | 1 to 10 nM | 500 to 1000 nM | 20 to 30% | 53 to 60% |  |
| Cc1cc(Nc2ncc(Cl)c(Nc3ccccc3S(=O)(=O)C(C)C)n2)c(OC(C)C)cc1C1CCN(Cc2ccc(C3CCC(=O)NC3=O)cc2)CC1 (stereo not drawn) [GT-07364, 3-(4-((4-(4-((5-chloro-4-((2-(isopropylsulfonyl)phenyl)amino)pyrimidin-2-yl)amino)-5-isopropoxy-2-methylphenyl)piperidin-1-yl)methyl)phenyl)piperidine-2,6-dione] | 500 to 1000 nM |  | 100 to 500 nM | A (A is defined as 0% ≤ substrate protein remaining % ≤ 80%) | 10 to 50 nM | 500 to 1000 nM |  |  | 100 to 500 nM |
| COc1cc(N2CCC(N3CCN(Cc4cccc(NC5CCC(=O)NC5=O)c4)CC3)CC2)ccc1Nc1ncc(Cl)c(Nc2ccccc2P(C)(C)=O)n1 (stereo not drawn) [GT-07605, 3-((3-((4-(1-(4-((5-chloro-4-((2-(dimethylphosphoryl)phenyl)amino)pyrimidin-2-yl)amino)-3-methoxyphenyl)piperidin-4-yl)piperazin-1-yl)methyl)phenyl)amino)pip eridine-2,6-dione] | 100 to 500 nM | 100 to 500 nM | 50 to 100 nM | A (A is defined as 0% ≤ substrate protein remaining % ≤ 80%) | 1 to 10 nM |  |  |  | 100 to 500 nM |
| COc1cc(N2CCC(N3CCN(Cc4cc(N5CCC(=O)NC5=O)ncc4F)CC3)CC2)ccc1Nc1ncc(Cl)c(Nc2ccccc2P(C)(C)=O)n1 [GT-07608, 1-(4-((4-(1-(4-((5-chloro-4-((2-(dimethylphosphoryl)phenyl)amino)pyrimidin-2-yl)amino)-3-methoxyphenyl)piperidin-4-yl)piperazin-1-yl)methyl)-5-fluoropyridin-2-yl)dihydropyrimidine-2,4(1H,3H)-dione] | 100 to 500 nM | 100 to 500 nM | 10 to 50 nM | A (A is defined as 0% ≤ substrate protein remaining % ≤ 80%) | 1 to 10 nM | 500 to 1000 nM |  |  | 100 to 500 nM |
| COc1cc(N2CCC(N3CCN(Cc4ccnc(N5CCC(=O)NC5=O)c4)CC3)CC2)ccc1Nc1ncc(Cl)c(Nc2ccccc2P(C)(C)=O)n1 [GT-07609, 1-(4-((4-(1-(4-((5-chloro-4-((2-(dimethylphosphoryl)phenyl)amino)pyrimidin-2-yl)amino)-3-methoxyphenyl)piperidin-4-yl)piperazin-1-yl)methyl)pyridin-2-yl)dihydropyrimidine-2,4(1H,3H)-dione] | 500 to 1000 nM | 100 to 500 nM | 10 to 50 nM | A (A is defined as 0% ≤ substrate protein remaining % ≤ 80%) | 1 to 10 nM | 500 to 1000 nM |  |  | 100 to 500 nM |
| COc1cc(N2CCC(N3CCN(Cc4ccc(C5CCC(=O)NC5=O)cn4)CC3)CC2)ccc1Nc1ncc(Cl)c(Nc2ccccc2P(C)(C)=O)n1 (stereo not drawn) [GT-07613, 3-(6-((4-(1-(4-((5-chloro-4-((2-(dimethylphosphoryl)phenyl)amino)pyrimidin-2-yl)amino)-3-methoxyphenyl)piperidin-4-yl)piperazin-1-yl)methyl)pyridin-3-yl)piperidine-2,6-dione] | 500 to 1000 nM | 500 to 1000 nM | 50 to 100 nM | A (A is defined as 0% ≤ substrate protein remaining % ≤ 80%) | 1 to 10 nM |  |  |  | 500 to 1000 nM |
| COc1cc(N2CCC(N(C)Cc3ccc(N4CCC(=O)NC4=O)cc3)CC2)ccc1Nc1ncc(Cl)c(Nc2ccccc2P(C)(C)=O)n1 [GT-07615, 1-(4-(((1-(4-((5-chloro-4-((2-(dimethylphosphoryl)phenyl)amino)pyrimidin-2-yl)amino)-3-methoxyphenyl)piperidin-4-yl)(methyl)amino)methyl)phenyl)dihydropyrimidine-2,4(1H,3H)-dione] | 100 to 500 nM | 100 to 500 nM | 10 to 50 nM | A (A is defined as 0% ≤ substrate protein remaining % ≤ 80%) | 1 to 10 nM | 500 to 1000 nM |  |  | 100 to 500 nM |
| COc1cc(N2CCC(N(C)Cc3cccc(NC4CCC(=O)NC4=O)c3)CC2)ccc1Nc1ncc(Cl)c(Nc2ccccc2P(C)(C)=O)n1 (stereo not drawn) [GT-07692, 3-((3-(((1-(4-((5-chloro-4-((2-(dimethylphosphoryl)phenyl)amino)pyrimidin-2-yl)amino)-3-methoxyphenyl)piperidin-4-yl)(methyl)amino)methyl)phenyl)amino)piperidine-2,6-dione] | 500 to 1000 nM | 500 to 1000 nM | 100 to 500 nM | A (A is defined as 0% ≤ substrate protein remaining % ≤ 80%) | 10 to 50 nM |  |  |  | 100 to 500 nM |
| COc1cc(N2CCC(N(C)Cc3cncc(C4CCC(=O)NC4=O)c3)CC2)ccc1Nc1ncc(Cl)c(Nc2ccccc2P(C)(C)=O)n1 (stereo not drawn) [GT-07699, 3-(5-(((1-(4-((5-chloro-4-((2-(dimethylphosphoryl)phenyl)amino)pyrimidin-2-yl)amino)-3-methoxyphenyl)piperidin-4-yl)(methyl)amino)methyl)pyridin-3-yl)piperidine-2,6-dione] | 500 to 1000 nM | 500 to 1000 nM | 100 to 500 nM | A (A is defined as 0% ≤ substrate protein remaining % ≤ 80%) | 10 to 50 nM |  |  |  | 500 to 1000 nM |
| COc1cc(N2CCN(Cc3cncc(C4CCC(=O)NC4=O)c3)CC2)ccc1Nc1ncc(Cl)c(Nc2ccccc2P(C)(C)=O)n1 (stereo not drawn) [GT-07714, 3-(5-((4-(4-((5-chloro-4-((2-(dimethylphosphoryl)phenyl)amino)pyrimidin-2-yl)amino)-3-methoxyphenyl)piperazin-1-yl)methyl)pyridin-3-yl)piperidine-2,6-dione] | 100 to 500 nM |  | 100 to 500 nM | A (A is defined as 0% ≤ substrate protein remaining % ≤ 80%) | 10 to 50 nM |  |  |  | 50 to 100 nM |
